# From patent US20190142860A1, “NUCLEIC ACID BASED TIA-1 INHIBITORS” (Aquinnah Pharmaceuticals, Inc., priority 2015, published 2019)
# Entries after “also recorded” stand apart in the source; their conditions may differ. Residues, ends and D or L forms follow the SMILES beside them. *: point of attachment. Cbz = O=C(OCc1ccccc1)*
# What was measured:
# [1] = tested on: tau-induced TIA1+ SGs in HT22 cells; assay: PKR / PERK inhibitors on tau-mediated SG formation; type: cell-based, mouse; conditions: TIA1 ± WT tau, 24 hrs, C16 1 μM, GSK2606414 50 nM
# Procedure: The eukaryotic translation initiation factor eIF2α is regulated by phosphorylation. […] SGs were induced by transfection with TIA1±WT tau. After 24 hrs the cells were treated with inhibitors of PKR (C16, 1 μM, Sigma) or PERK (GSK2606414, 50 nM, EMD/Millipore), and then SG number was quantified after 24 hrs.
# tau = assay: Tau levels with TIA1 over-expression under proteasome or autophagy inhibition, immunoblot in HT22 cells; type: cell-based, mouse; conditions: overnight, MG132 5 μM, chloroquine 50 μM
# Procedure: Immunoblots were preformed using gradient PAGE on a 15-well 4-12% Bis-Tris gel (Invitrogen). Blocking was done in 5% milk for lhr at RT. Primary antibody incubation was at 4° C. overnight with 1:7,500 mouse monoclonal Tau13, 1:500 mouse monoclonal PHF1, 1:500 goat polyclonal TIA1 (Santa Cruz), 1:500 mouse monoclonal synaptophysin (Santa Cruz), 1:1,000 mouse monoclonal PSD-95 (NeuroMab), 1:1,000 rabbit polyclonal caspase-3 or cleaved caspase 3 (Cell Signaling), or 1:10,000 mouse monoclonal actin (Millipore) in PBS. Secondary antibody was incubated in 5% milk for 1 hr at RT. Developing was done using SuperSignal West Pico Substrate (Thermo).
# [2] = tested on: granules positive for TIA1 and phospho-tau (P-S396/404, PHF1); assay: Tau kinase inhibitor study: TIA1+ SGs and PHF1+ tau granules; type: cell-based, mouse; conditions: HT22 cells, TIA1 and WT tau, 24 hrs; XXVI 20 μM, CDK2/5 inhibitor 5 μM, SB203580 20 μM, 39621 20 μM, PP2 20 nM
# [3] = tested on: stress granules (SGs) in HT22 cells; assay: Stress granule / tau granule formation in HT22 cells expressing tau and TIA1; type: cell-based, mouse; conditions: for formation of tau granules: neuronal cell lines
# Procedure: HT22 cells were transfected using Lipofectamine (Invitrogen), incubated 24 hours, and treated after 24 hrs (25 uM salubrinal, 5 μg/ml puromycin, 10 μg/ml cycloheximide). At 48 hours the cells were fixed in 4% PFA.
# HT22 cells were maintained in DMEM (4.5 g glucose/L) media supplemented with 10% fetal bovine serum, lx PenStrep (Invitrogen), lx L-Glutamine (Invitrogen), and 1× non-essential amino acids. Cells were passaged twice a week 1:5. Cells were seeded on 18 mm poly-D-lysine coated coverslips in 12-well plates (75,000/coverslip) one day prior to transfection in […] media (DMEM, 10% FBS). Cells were transfected at 1:2 ratio DNA:Lipofectamine (Invitrogen), delivering 2 μg total DNA per well. Lipofectamine in OptiMEM (Invitrogen) is incubated for 5 min prior to the addition of the DNA/OptiMEM. The transfection mixture is then allowed to incubate for 20 min at room temperature prior to being added to the cells. 500 μL of media is removed and 500 μL of transfection mixture is added dropwise to each well. Cells were incubated 24 hours, after which the addition of 25 μM salubrinal may be added to half of the plates and allowed to incubate for 24 hours. At 48 hours post-transfection, the cells were fixed in 4% PFA and stored in PBS.
# Granule count cells: SG density was quantified using Image J software by calculating the number of puncta […] per 63× frame controlled for the number of cells. This was done by thresholding images, and using the analyze particle functionality. Quantifications of granule counts and area in primary neurons was done in ImageJ by using a free-hand tool to outline the neuron, thresholding the image, creating a mask over the nucleus, and using the particle analyzer tool.
# [4] = tested on: primary hippocampal neurons; assay: Dendrite length of primary hippocampal neurons (MAP2, NeuronJ); type: cell-based, mouse; conditions: Tau−/− and TIA1−/− neurons, WT or P301L tau ± TIA1, DIV21; puromycin 5 μg/ml, cycloheximide 10 μg/ml
# Description: SG density and dendritic processes were quantified using Image J (using ImageJ plug-ins NeuronJ, tracing MAP2 positive processes for dendritic measurements). Granule movement and formation was quantified using Bitplane Imaris Track software (Imaris).
# Measurements of dendritic processes were done using ImageJ plug-ins NeuronJ. Using the software to trace MAP2 positive processes of individual cells yields a pixel measurement that can then be back calculated to micrometers using the microscope scaling parameters.
# [5] = tested on: tau granules in primary hippocampal neurons; assay: Tau granules in dendrites of primary tau−/− hippocampal neurons; type: cell-based, mouse; conditions: WT or P301L tau ± TIA1, treated at DIV21, cycloheximide 10 μg/ml
# Procedure: Primary hippocampal cultures were generated from P0 pups from C57Bl/6 WT, TIA1 −/−, or tau −/− mice. The hippocampus was dissected out in Hank's Balanced Salt Solution buffered with HEPES and PenStrep, and dissociated with 0.125% trypsin for 15 min at 37° C., followed by trituration. Dissociated cells were plated on plates of coverslips pre-coated with Poly-D lysine (100 μg/mL, Sigma). Neurons were grown for 21 days in Neurobasal medium supplemented with B-27 (Invitrogen)
# At DIV3 neurons were transduced with AAV9-TIA1-mRFP or AAV9-mRFP virus (MOI 20). At DIV7 neurons were transduced with AAV1-WT tau-V5 or AAV1-P301L tau-V5 virus (MOI 20). Neurons were fixed for immunolabeling and confocal microscopy in 4% PFA, or lysed in via sonication in PBS with protease and phosphatase inhibitors.
# Granule count neurons: Quantifications of granule counts and area in primary neurons was done in ImageJ by using a free-hand tool to outline the neuron, thresholding the image, creating a mask over the nucleus, and using the particle analyzer tool.
# caspase-3 = assay: Caspase cleavage (Caspase-Glo 3/7) in neurons co-transduced with TIA1 and tau; type: cell-based, mouse; conditions: salubrinal 25 μM
# Procedure: Caspase 3/7 cleavage was quantified with the Caspase-Glo 3/7 Assay kit, Promega. Apoptosis detected DNA fragmentation (TiterTACS Colorimetric Apoptosis Detection kit, Trevigen).
# Caspase 3/7 cleavage was quantified with the Caspase-Glo 3/7 Assay kit, Promega. Apoptosis was analyzed by quantifying DNA fragmentation (TiterTACS Colorimetric Apoptosis Detection kit, Trevigen).
# [6] = target: microtubules (mouse brain); assay: microtubule pelleting in RAB buffer / immunoblot, mouse cortex
compound,measurement,setting,value
O=C1Nc2ccc3ncsc3c2/C1=C/c1cnc[nH]1 [C16],tau-mediated SG formation (SG number),[1],strongly inhibited; also recorded: Inhibition
Cn1cc(-c2ccc3c(c2)CCN3C(=O)Cc2cccc(C(F)(F)F)c2)c2c(N)ncnc21 [GSK2606414],tau-mediated SG formation (SG number),[1],strongly inhibited; also recorded: Inhibition
CC(C)C[C@@H](C=O)NC(=O)[C@H](CC(C)C)NC(=O)[C@H](CC(C)C)NC(=O)OCc1ccccc1 [MG132] (Cbz-Leu-Leu-Leu-aldehyde),decreases in tau associated with TIA1 over-expression,tau,neither MG132 nor chloroquine prevented decreases in tau
Cn1cc(-c2[nH][nH]c(=O)c2-c2cn(C)c3ccccc23)c2ccccc21 [XXVI],formation of granules positive for TIA1 and phospho-tau (SGs and tau granules),[2],inhibition of SGs and tau granules
CCN(CC)CCCC(C)Nc1ccnc2cc(Cl)ccc12 (centres unmarked) [chloroquine],decreases in tau associated with TIA1 over-expression,tau,neither MG132 nor chloroquine prevented decreases in tau
C[C@@H]1C[C@@H]([C@H](O)CC2CC(=O)NC(=O)C2)C(=O)[C@@H](C)C1 [cycloheximide],formation of tau/SG complexes (tau+ SGs),"[3]; HT22 cells over-expressing TIA1 and WT or P301L tau, arsenite, cycloheximide 10 μg/ml",prevented formation of the tau/SG complexes; also recorded: reversed
same,formation of tau granules,[3],prevented formation of tau granules
same,dendrite length,[4],did not affect dendrite length
same,"tau granules in dendritic processes (Tau13, MAP2 imaging)",[5],"spread diffusely with only small, less defined granules apparent"
COc1ccc(C[C@H](N)C(=O)N[C@H]2[C@@H](O)[C@H](n3cnc4c(N(C)C)ncnc43)O[C@@H]2CO)cc1 [puromycin],formation of tau granules,[3],stimulated formation of tau granules
same,dendrite length,[4],potentiated the decrease in dendritic length
same,"tau granules in dendritic processes (Tau13, MAP2 imaging)",[5],larger and more abundant tau granules
O=C(/C=C/c1ccccc1)NC(NC(=S)Nc1cccc2cccnc12)C(Cl)(Cl)Cl (centres unmarked) [salubrinal],SG levels,"[3]; HT22 cells expressing tau, salubrinal 25 uM",enhanced SG levels
same,number of SGs,"[3]; HT22 cells, P301L, P301L PMIM or P301L PNULL tau ± TIA1-RFP, salubrinal 25 μM",increased the number of SGs in all conditions
same,levels of cleaved caspase-3 (caspase cleavage),caspase-3,potentiated
alkylbenzyldimethyammonium chloride,formation of granules positive for TIA1 and phospho-tau (SGs and tau granules),[2],inhibition of SGs and tau granules
human 1N4R tau with the P301S mutation (PS19 transgene) (from UniProt P10636 2-412),"fold increase in the ratio of MT-bound (P) to unbound (S) tau, P301S TIA1+/- against P301S TIA1+/+",[6],3 fold
